Results on one compound are retold here after patent US8299040B2, “Methods for treating cancer targeting transglutaminase” (Board of Regents, The University of Texas System, priority 2006, dated 2012).

In one test the target is T1, PKCδ (Homo sapiens, UniProt Q05655).
T1 construct: endogenous in cells; host or cells: MDA-Panc28
Description: PKCδ protein expression in MDA-Panc28 cells (western blot). The settings on record: 48 h. In kind it is cell-based. Background: Immunoblotting shows a protein as a band on a membrane.

Test [1] has as its system TG2. In words: TG2 protein expression in MDA-Panc28 cells (western blot). The class given is cell-based, human. To be noted: 48 h. As to the method: (A) Cells at 80% confluence were treated with 1 μM, 2 μM or 4 μM rottlerin. After 48 h of treatment, the cells were lysed and cell lysates were fractionated by sodium dodecyl sulfate polyacrylamide gel electrophoresis (SDS-PAGE) and transferred onto nitrocellulose membrane to determine PKCδ and TG2 protein expression by western blot analysis. The membrane was stripped and reprobed with an anti-β-actin antibody to confirm equal loading of protein in each lane. (B) Total RNA was extracted, and transcript levels of TG2 and β-actin were determined by RT-PCR analysis as described in Materials and Methods. Relative expression levels were determined by densitometry as compared with β-actin. Experiments were repeated at least three times.
(§1) After treatment, the cells were collected and centrifuged, and whole-cell lysates were obtained using a lysis buffer. Total protein concentration was determined using a DC protein assay kit (Bio-Rad, Hercules, Calif., USA). […] Mouse anti-β-actin and donkey anti-mouse secondary antibody were purchased from Sigma Chemical (St. Louis, Mo., USA) so that β-actin expression could be monitored to ensure equal loading of proteins. […] The blots were visualized with a Fluor Chem 8900 imager and quantified by a densitometer using the Alpha Imager application program (Alpha Innotech). […]

Test [2] has as its system TG2. Description: TG2 transcript level in MDA-Panc28 cells (RT-PCR). In kind it is cell-based, human. As to the method:
Cells were collected for isolation of total RNA. Total cellular RNA was isolated with Trizol reagent (Invitrogen/Life Technologies, Carlsbad, Calif., USA), and cDNA was obtained from 5 μg of total RNA using a Superscript II RT kit (Invitrogen/Life Technologies). Briefly, 5 μl of the total 20 μl of reverse-transcribed product was used for PCR in 1×PCR buffer containing 1.5 mM MgCl2, 250 μM dNTPs, 0.5 units of Taq polymerase (Invitrogen/Life Technologies), and 100 ng of TG2 primer (primer 1,5′-[…]-3′; primer II, 5′-[…] GAGCAGG-3′) or β-actin-specific primer (Sigma-Genosys, Houston, Tex., USA). Thirty cycles were used for PCR analysis. The reaction products were analyzed on a 2% agarose gel containing ethidium bromide, and cDNA synthesis was verified by detection of the β-actin transcript, which was used as an internal control.

Test [3] deals with MDA-Panc28 cells. In words: Growth inhibition in MDA-Panc28 cells. The class given is cell-based. To be noted: Homo sapiens, MDA-Panc-28; 4 μM for 48 h; read-out: inhibition in cell growth. As to the method: Pancreatic cell lines MDA-Panc28, Capan-2, Bx-PC3, Panc1 and MIAPaCa were provided by Dr. Shrikant Reddy (M. D. Anderson Cancer Center). MDA-Panc28 and Bx-PC3 cell lines were maintained in RPMI-1640 medium supplemented with 10% fetal calf serum. Panc1 and MIAPaCa cell lines and Capan-2 cells were maintained in DMEM and McCoy's 5A, respectively. All media were supplemented with 10% fetal calf serum. For the cell proliferation experiments, cells were seeded at a density of 1-2×10^5 cells in T-25 tissue culture flasks. Twenty-four hours after the seeding, cells were treated with various concentrations of rottlerin for the indicated periods of time. Adherent cells were collected by trypsinization, and cell numbers were determined using a Neubauer cell counting chamber. All experiments were replicated at least two times.

In test [4] the test system is MDA-Panc28 cells. Description: Apoptosis in MDA-Panc28 cells (sub-G1 FACS, PARP cleavage). In kind it is cell-based, human. The protocol:
PARP cleavage positive cell lysate was used as a positive control. (C) Morphological changes after treatment with rottlerin. Microphotographs were taken using a phase-contrast microscope (300× magnification). Left panel, untreated cells at 48 h of treatment; center panel, cells treated for 48 h, and right panel, cells treated for 96 h.

The subject of test [5] is MDA-Panc28, Capan-2, Bx-PC3, Panc1 and MIAPaCa cells. Description: LC3-II accumulation (autophagy) in pancreatic cancer cell lines, western blot. To be noted: 4 μM for 48 h. The class given is cell-based, human. As to the method:
(§2) (A) A panel of pancreatic cancer cell lines including MDA-Panc28, Capan-2, Bx-PC3, Panc1 and MIAPaCa cells were treated with Rottlerin (4 μM) for 48 h for the detection of LC3-II and TG2 expression by western blot. (B) MCF-7 cell line was also tested for LC3-II and TG2 expression by western blot. (C) Expression of TG2 in MDA-Panc28 cells was determined upon exposure to different treatments (D) Detection of autophagolysosomes; MDA-Panc28 cells were treated with either control siRNA, Rottlerin or TG2 siRNA for 48 h. Photomicrographs show morphological changes of the cells by phase contrast microscopy (left panels); acridine orange staining of the acidic vesicular organelles by fluorescent microscopy (center panels) and the localization LC3-II at autophagosomes in cells after transfection with GFP-LC3 plasmid (right panels). […]
as §1

The next test concerns MCF-7 cells. Description: LC3-II accumulation in TG2-negative MCF-7 cells. In kind it is cell-based, human. To be noted: MCF-7 (TG2-negative), optimal conditions. The protocol:
as §2, §1

T1 sequence (Q05655 whole entry): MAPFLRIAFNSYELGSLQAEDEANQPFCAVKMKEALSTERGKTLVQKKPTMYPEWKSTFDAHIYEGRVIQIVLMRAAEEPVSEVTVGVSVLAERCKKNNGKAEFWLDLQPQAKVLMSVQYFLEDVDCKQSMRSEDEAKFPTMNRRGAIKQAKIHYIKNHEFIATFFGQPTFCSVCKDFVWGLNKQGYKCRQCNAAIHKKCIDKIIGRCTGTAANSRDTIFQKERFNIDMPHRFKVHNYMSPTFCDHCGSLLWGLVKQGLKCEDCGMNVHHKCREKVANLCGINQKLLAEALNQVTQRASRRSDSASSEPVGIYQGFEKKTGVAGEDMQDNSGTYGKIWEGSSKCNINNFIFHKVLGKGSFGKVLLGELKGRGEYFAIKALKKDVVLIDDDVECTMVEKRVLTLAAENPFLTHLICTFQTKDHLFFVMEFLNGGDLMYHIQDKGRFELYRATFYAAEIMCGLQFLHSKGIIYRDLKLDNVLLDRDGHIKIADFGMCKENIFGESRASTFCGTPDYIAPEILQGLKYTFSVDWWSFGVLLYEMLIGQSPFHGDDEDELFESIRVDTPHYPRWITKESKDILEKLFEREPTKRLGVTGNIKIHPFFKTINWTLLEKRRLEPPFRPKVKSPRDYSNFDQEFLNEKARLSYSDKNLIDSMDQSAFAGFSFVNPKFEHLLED
Description for PKCδ: (A) Cells at 80% confluence were treated with 1 μM, 2 μM or 4 μM rottlerin. After 48 h of treatment, the cells were lysed and cell lysates were fractionated by sodium dodecyl sulfate polyacrylamide gel electrophoresis (SDS-PAGE) and transferred onto nitrocellulose membrane to determine PKCδ and TG2 protein expression by western blot analysis. […] Experiments were repeated at least three times.
After treatment, the cells were collected and centrifuged, and whole-cell lysates were obtained using a lysis buffer. Total protein concentration was determined using a DC protein assay kit (Bio-Rad, Hercules, Calif., USA). […] Aliquots containing 30 μg of total protein from each sample were subjected to sodium dodecyl sulfate-polyacrylamide gel electrophoresis (SDS-PAGE) with a 4-20% gradient and electrotransferred to nitrocellulose membranes. The membranes were blocked with 5% dry milk in tris-buffered saline-tween 20 (TBST), probed with primary antibodies diluted in TBST containing 2.5% dry milk and incubated at 4° C. overnight. […] Mouse anti-β-actin and donkey anti-mouse secondary antibody were purchased from Sigma Chemical (St. Louis, Mo., USA) so that β-actin expression could be monitored to ensure equal loading of proteins. […] The blots were visualized with a Fluor Chem 8900 imager and quantified by a densitometer using the Alpha Imager application program (Alpha Innotech). […]

The inhibition is the percentage by which the read-out fell short of the control. Consider `CC(=O)c1c(O)c(C)c(O)c(Cc2c(O)c3c(c(C(=O)/C=C/c4ccccc4)c2O)OC(C)(C)C=C3)c1O` [rottlerin], for which the “inhibition of PKCδ protein expression” value is on record as 72% on PKCδ (2 μM) and 94% against PKCδ (4 μM). In addition, in the test with TG2 [1] (1 μM), the “inhibition of TG2 protein expression” value is recorded as 44%. Moreover, the “inhibition of TG2 protein expression (maximum)” value in the test with TG2 [1] (4 μM) came to 94%. Also, in the test with TG2 [2], the “effect on TG2 expression at the level of transcription” value is “inhibitory effect”. The inhibition at 4 µM in the test with MDA-Panc28 cells [3] turned out to be 49%. Further, the “apoptosis (accumulation in sub-G1 phase)” value in the test with MDA-Panc28 cells [4] (4 μM for 48 h, FACS) was “failed to promote any apoptosis”. For the same compound, the PARP cleavage entry in the test on MDA-Panc28 cells [4] (Western blot) is on record as “failed to show any poly ADP-ribose polymerase (PARP) cleavage”. In addition, the “endogenous LC3-II accumulation” value in test [5] is given as “significant increase in endogenous LC3-II accumulation”. Besides, the LC3-II accumulation entry in the test with MCF-7 cells was “failed to produce any increase in LC3-II accumulation”.
